Source: patent publication US7671201B2, “Phenyl substituted cyclic derivatives” (priority 2003, dated 2010)

Test system: tobacco budworm (Heliothis virescens [Fabricius])
Conditions: 0.25 millimolar on the surface of the diet, second instar larvae, five-day exposure; for Percent Mortality: compared to total number of insects infested; for Percent Growth Inhibition: inhibition of insect weight relative to untreated controls
Experimental: Candidate insecticides were evaluated for activity against the tobacco budworm (Heliothis virescens [Fabricius]) in a surface-treated diet test.
In this test one mL of molten (65-70° C.) wheat germ-based artificial diet was pipetted into each well of a four by six (24 well) multi-well plate (ID#430345-15.5 mm dia.×17.6 mm deep; Corning Costar Corp., One Alewife Center, Cambridge, Mass. 02140). The diet was allowed to cool to ambient temperature before treatment with candidate insecticide.
The robot subsequently pipetted 40 microliters of the so-prepared solution onto the surface of the diet in each of three wells in the 24 multi-well plate. The process was repeated with solutions of seven other candidate insecticides. […] Appropriate untreated controls containing only DMSO on the diet surface were also included in this test.
For evaluations of the insecticidal activity of a candidate insecticide at varying rates of application, the test was established as described above using sub-multiples of the standard 50 millimolar DMSO solution of candidate insecticide. […] In these evaluations there were six replicates of each rate of application placed on the surface of the diet in the 24 multi-well plate, for a total of four rates of application of candidate insecticide in each plate.
In each well of the test plate was placed one second instar tobacco budworm larvae, each weighing approximately five milligrams. After the larvae were placed in each well, the plate was sealed with clear polyfilm adhesive tape. The tape over each well was perforated to ensure an adequate air supply. The plates were then held in a growth chamber at 25° C. and 60% relative humidity for five days (light 14 hours/day).
After the five-day exposure period insecticidal activity for each rate of application of candidate insecticide was assessed as percent inhibition of insect weight relative to the weight of insects from untreated controls, and percent mortality when compared to the total number of insects infested.

Compound	Percent Mortality [%]	Percent Growth Inhibition [%]
2-{2-[3,4-dichlorophenyl)piperazinyl]ethoxy}-5-(3,3-dichloroprop-2-enyloxy)-1,3-dichlorobenzene [Compound 20]	100	100
O=S(=O)(c1ccc(C(F)(F)F)cc1)N1CCN(c2c(Cl)cc(OCC=C(Cl)Cl)cc2Cl)CC1 [Compound 26, 5-(3,3-dichloroprop-2-enyloxy)-1,3-dichloro-2-{4-[4-(trifluoromethyl)phenylsulfonyl]piperazinyl}benzene]	100	100
OC1(c2ccc(Cl)cc2)CCN(CCOc2c(Cl)cc(OCC=C(Cl)Cl)cc2Cl)CC1 [Compound 35, 1-{2-[4-(3,3-dichloroprop-2-enyloxy)-2,6-dichlorophenoxy]ethyl}-4-(4-chlorophenyl)piperidin-4-ol]	100	100
tert-butyl 4-{[4-(3,3-dichloroprop-2-enyloxy)-2,6-dichlorophenoxy]methyl}piperidinecarboxylate [Compound 4]	100	100
